From the supplement of paper PMC13380429

What was measured:
Conditions in all cases: 72 h
[1] = system: Calu-3; assay: relative viability EC50 (midpoint between 100% and the lowest measured viability); higher = less toxic
[2] = system: Vero E6; assay: as above
[3] = system: U2OS; assay: as above
[4] = system: HepG2; assay: as above
[5] = system: Caco-2; assay: as above
[6] = system: Calu-3; assay: drug sensitivity score (DSS) for viability; higher = more toxic; extreme values may be limits of the assay
[7] = system: Vero E6; assay: as above
[8] = system: U2OS; assay: as above
[9] = system: HepG2; assay: as above
[10] = system: Caco-2; assay: as above
[11] = system: Calu-3; assay: cell viability relative to DMSO; higher = less toxic
[12] = system: Vero E6; assay: as above
[13] = system: U2OS; assay: as above
[14] = system: HepG2; assay: as above
[15] = system: Caco-2; assay: as above

Compound	relative viability EC50 [1]	relative viability EC50 [2]	relative viability EC50 [3]	relative viability EC50 [4]	relative viability EC50 [5]	drug sensitivity score [6]	drug sensitivity score [7]	drug sensitivity score [8]	drug sensitivity score [9]	drug sensitivity score [10]	cell viability ([11]; 1 nM)	cell viability ([11]; 10 nM)	cell viability ([11]; 100 nM)	cell viability ([11]; 1000 nM)	cell viability ([11]; 10000 nM)	cell viability ([12]; 1 nM)	cell viability ([12]; 10 nM)	cell viability ([12]; 100 nM)	cell viability ([12]; 1000 nM)	cell viability ([12]; 10000 nM)	cell viability ([13]; 1 nM)	cell viability ([13]; 10 nM)	cell viability ([13]; 100 nM)	cell viability ([13]; 1000 nM)	cell viability ([13]; 10000 nM)	cell viability ([14]; 1 nM)	cell viability ([14]; 10 nM)	cell viability ([14]; 100 nM)	cell viability ([14]; 1000 nM)	cell viability ([14]; 10000 nM)	cell viability ([15]; 1 nM)	cell viability ([15]; 10 nM)	cell viability ([15]; 100 nM)	cell viability ([15]; 1000 nM)	cell viability ([15]; 10000 nM)
CNC1CC(c2ccc(Cl)c(Cl)c2)c2ccccc21 (stereo not given) [indatraline]	> 10 µM	> 10 µM	> 10 µM	> 10 µM	> 10 µM	0	0	0	0	0.1	102%	96.3%	93%	107%	89%	99.4%	95.4%	96.4%	99.4%	91.7%	100%	102%	94%	102%	90.1%	97.6%	96%	96.4%	99%	92.7%	99.7%	103%	95%	103%	86.8%
O=c1[nH]cnc2c([C@@H]3N[C@H](CO)[C@@H](O)[C@H]3O)c[nH]c12 [forodesine]	> 10 µM	> 10 µM	> 10 µM	> 10 µM	> 10 µM	0	0	0	0	0	92.4%	89%	97.2%	91.5%	94.4%	103%	96.8%	96.8%	97.2%	94.7%	102%	97.6%	94.4%	103%	98%	106%	104%	110%	92.6%	102%	103%	98.4%	98.4%	101%	98.6%
COc1cc2c(cc1OC)-c1cc3ccc(OC)c(OC)c3c[n+]1CC2 [palmatine-chloride]	> 10 µM	> 10 µM	> 10 µM	> 10 µM	> 10 µM	0	0	0	0.6	0	94.1%	105%	100%	90.1%	90%	100%	99.3%	99.6%	102%	101%	101%	101%	98.5%	102%	92.6%	110%	101%	107%	105%	77.1%	103%	99.1%	92.8%	102%	90.9%
COc1cc(C(=O)N(CC[C@H]2CCCN2C)C/C(C)=C/c2ccccc2F)cc(OC)c1OC (racemic)	> 10 µM	> 10 µM	> 10 µM	> 10 µM	> 10 µM	0	0	0	0.1	0	93.5%	108%	103%	104%	94.4%	102%	102%	103%	99.5%	99%	98.6%	96.8%	102%	99.2%	97.7%	103%	102%	95.8%	104%	86.6%	97.4%	98.7%	99.7%	103%	93.5%
Nc1ncnc2c1ncn2[C@@H]1O[C@H](C[C@@H](N)CC[C@H](N)C(=O)O)[C@@H](O)[C@H]1O [sinefungin]	> 10 µM	> 10 µM	> 10 µM	> 10 µM	> 10 µM	0	0	0	0	0	104%	104%	100%	94.8%	93.5%	112%	94.3%	102%	104%	99.5%	96.6%	98.1%	97.7%	101%	96.2%	115%	96.2%	113%	89.9%	97.1%	86.7%	95.5%	91.4%	108%	106%
Cc1cc(N2CCCCC2)nc2ccccc12 [ML204]	> 10 µM	> 10 µM	> 10 µM	> 10 µM	> 10 µM	0	0	0	0	0	113%	95.5%	101%	107%	110%	91.7%	92.7%	87.3%	92.2%	103%	99.7%	98.4%	96.9%	102%	101%	92%	93.5%	88.8%	104%	102%	87.9%	97.4%	84.3%	96.2%	87.9%
CC(C)Oc1ccc(-c2cnc3c(-c4ccnc5ccccc45)cnn3c2)cc1 [DMH1]	> 10 µM	> 10 µM	> 10 µM	> 10 µM	> 10 µM	0	0	0	0	0	117%	102%	105%	108%	96.4%	95.4%	104%	98.2%	104%	104%	103%	100%	98.4%	94.4%	89.8%	104%	103%	100%	96.8%	90%	108%	93.7%	102%	95.9%	95.6%
Oc1cc(O)c2c(c1)O[C@H](c1ccc(O)c(O)c1)[C@H](O)[C@H]2c1c(O)cc(O)c2c1O[C@H](c1ccc(O)c(O)c1)[C@H](O)C2 [procyanidin-B-2]	> 10 µM	> 10 µM	> 10 µM	> 10 µM	> 10 µM	0	0	0	0	0	112%	95.6%	100%	93.1%	109%	97%	98.2%	91.8%	101%	93.4%	103%	99.9%	106%	99.5%	104%	98.5%	100%	96.8%	99.3%	94.7%	106%	102%	102%	98.7%	105%
